In patent US10076519B2 (CYTOKINETICS, INC., priority 2010, dated 2018):

System: rabbit skeletal myofibrils (fast skeletal myofibrils)
Test: Activation of fast skeletal myofibrils (PUMA assay, PK/LDH-coupled ATPase at pCa25)
Type: biochemical
Procedure, shortened: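 ATPase activity of Triton-washed rabbit skeletal myofibrils, roughly 90% fast fibres, tracked by NADH loss at 340 nm through a PK/LDH-coupled ADP-regenerating system. Calcium set to 25% of maximal activity (pCa25), in PIPES 12 mM pH 6.8 with 2 mM MgCl2 and 1 mM DTT; AC1.4 reported.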

[1] = median AC1.4 class, procedure of Example 39
[2] = median AC1.4 reported as class, procedure of Example 39
[3] = AC1.4 determined according to the procedure of Example 39, reported as class symbols

Mean AC1.4 [1] | Mean AC1.4 [3] | Structure (SMILES) | further results
A (A=<1 uM) | – | NC1(C(=O)NCc2cnc(-c3ccc(NCC4(c5ncccc5F)CCC4)nn3)s2)CC1 [(aminocyclopropyl)-N-({2-[6-({[(3-fluoro(2-pyridyl))cyclobutyl]methyl}ami-no)pyridazin-3-yl](1,3-thiazol-5-yl)}methyl)carboxamide] | –
B (B=1-10 uM) | – | c1ccc(-c2ccc(NC3(c4ccccc4)CCC3)nn2)cc1 [(phenylcyclobutyl)(6-phenylpyridazin-3-yl)amine] | –
B (B=1-10 uM) | – | CS(=O)(=O)NCc1cnc(-c2ccc(NCC3(c4ncccc4F)CCC3)nn2)s1 [({2-[6-({[(3-fluoro(2-pyridyl))cyclobutyl]methyl}ami-no)pyridazin-3-yl](1,3-thiazol-5-yl)}methyl)(methylsulfonyl)amine] | –
– | D (D=>20 uM) | OCC1(CNc2ccc(-c3ccc4[nH]ncc4c3)nn2)CCC1 [({[(6-(1H-indazol-5-yl)pyridazin-3-yl)amino]methyl}cyclobut-yl)methan-1-ol] | –
– | C (C=10-20 uM) | COC(=O)c1ccc(NCC(C)(C)c2ccc(F)cc2)nn1 [Methyl 6-(2-(4-fluorophenyl)-2-methylpropylamino)pyridazine-3-carboxylate] | –
A (A=<1 uM) | – | O=C(NC1CCS(=O)(=O)C1)c1cnc(-c2ccc(NCC3(c4ncccc4F)CCC3)nn2)s1 (centres unmarked) [N-(1,1-dioxothiolan-3-yl){2-[6-({[(3-fluoro(2-pyridyl))cyclobutyl]methyl}ami-no)pyridazin-3-yl](1,3-thiazol-5-yl)}carboxamide] | –
– | D (D=>20 uM) | CC(C)(CNc1ccc(C(=O)NC(CCC(N)=O)C(N)=O)nn1)c1ccc(F)cc1 (centres unmarked) [N-(1,3-dicarbamoylpropyl)(6-{[2-(4-fluorophenyl)-2-methylpropyl]amino}pyridazin-3-yl)carboxamide] | –
– | C (C=10-20 uM) | CC(C)CC(NC(=O)c1ccc(NCC(C)(C)c2ccc(F)cc2)nn1)C(N)=O (centres unmarked) [N-(1-carbamoyl-3-methylbutyl)(6-{[2-(4-fluorophenyl)-2-methylpropyl]amino}pyridazin-3-yl)carboxamide] | –
A (A=<1 uM) | – | O=C(NCC(F)(F)CO)c1cnc(-c2ccc(NCC3(c4ncccc4F)CCC3)nn2)s1 [N-(2,2-difluoro-3-hydroxypropyl){2-[6-({[(3-fluoro(2-pyridyl))cyclobutyl]methyl}ami-no)pyridazin-3-yl](1,3-thiazol-5-yl)}carboxamide] | –
– | B (B=1-10 uM) | CC(C)(CNc1ccc(-c2cccc(C(=O)NCC(O)CO)c2)nn1)c1ccc(F)cc1 (centres unmarked) [N-(2,3-dihydroxypropyl)[3-(6-{[2-(4-fluorophenyl)-2-methylpropyl]amino}pyridazin-3-yl)phenyl]carboxamide] | –
A (A=<1 uM) | – | O=C(NCC(O)CO)c1cnc(-c2ccc(NCC3(c4ncccc4F)CCC3)nn2)s1 (centres unmarked) [N-(2,3-dihydroxypropyl){2-[6-({[(3-fluoro(2-pyridyl))cyclobutyl]methyl}ami-no)pyridazin-3-yl](1,3-thiazol-5-yl)}carboxamide] | –
– | B (B=1-10 uM) | C=Cc1ccc(NCC(C)(C)c2ccc(F)cc2)nn1 [N-(2-(4-fluorophenyl)-2-methylpropyl)-6-vinylpyridazin-3-amine] | –
B (B=1-10 uM) | – | NC(CNC(=O)c1cnc(-c2ccc(NCC3(c4ncccc4F)CCC3)nn2)s1)C(F)(F)F (centres unmarked) [N-(2-amino-3,3,3-trifluoropropyl){2-[6-({[(3-fluoro(2-pyridyl))cyclobutyl]methyl}ami-no)pyridazin-3-yl](1,3-thiazol-5-yl)}carboxamide] | –

Further lines, the molecule ahead of its results:

Structure (SMILES) | Mean AC1.4 [1] | Mean AC1.4 [3] | further results
O=C1CC[C@@H](C(=O)NCc2cnc(-c3ccc(NCC4(c5ncccc5F)CCC4)nn3)s2)N1 [((2S)-5-oxopyrrolidin-2-yl)-N-({2-[6-({[(3-fluoro(2-pyridyl))cyclobutyl]methyl}ami-no)pyridazin-3-yl](1,3-thiazol-5-yl)}methyl)carboxamide] | A (A=<1 uM) | – | –
O=C(NCc1cnc(-c2ccc(NCC3(c4ncccc4F)CCC3)nn2)s1)[C@@H]1CCN1 [((2S)azetidin-2-yl)-N-({2-[6-({[(3-fluoro(2-pyridyl))cyclobutyl]methyl}ami-no)pyridazin-3-yl](1,3-thiazol-5-yl)}methyl)carboxamide] | – | – | Mean AC1.4 [2]: A (A=<1 uM)
O=C(NCc1cnc(-c2ccc(NCC3(c4ncccc4F)CCC3)nn2)s1)[C@@H]1CCCN1 [((2S)pyrrolidin-2-yl)-N-({2-[6-({[(3-fluoro(2-pyridyl))cyclobutyl]methyl}ami-no)pyridazin-3-yl](1,3-thiazol-5-yl)}methyl)carboxamide] | A (A=<1 uM) | – | –
CC(C)(CNc1ccc(-c2ncc(CNC(=O)[C@@H]3CCCN3)s2)nn1)c1ncccc1F [((2S)pyrrolidin-2-yl)-N-{[2-(6-{[2-(3-fluoro(2-pyridyl))-2-methylpropyl]amino}pyridazin-3-yl)(1,3-thiazol-5-yl)]methyl}carboxamide] | B (B=1-10 uM) | – | –
O=C(NCc1cnc(-c2ccc(NCC3(c4ncccc4F)CCC3)nn2)s1)[C@@H]1CS(=O)(=O)CCN1 [((3R)-1,1-dioxo(1,4-thiazaperhydroin-3-yl))-N-({2-[6-({[(3-fluoro(2-pyridyl))cyclobutyl]methyl}ami-no)pyridazin-3-yl](1,3-thiazol-5-yl)}methyl)carboxamide] | A (A=<1 uM) | – | –
O=C(NCc1cnc(-c2ccc(NCC3(c4ncccc4F)CCC3)nn2)s1)[C@H]1CS(=O)(=O)CCN1 [((3S)-1,1-dioxo(1,4-thiazaperhydroin-3-yl))-N-({2-[6-({[(3-fluoro(2-pyridyl))cyclobutyl]methyl}ami-no)pyridazin-3-yl](1,3-thiazol-5-yl)}methyl)carboxamide] | A (A=<1 uM) | – | –
O=C1CC[C@H](C(=O)NCc2cnc(-c3ccc(NCC4(c5ncccc5F)CCC4)nn3)s2)CN1 [((3S)-6-oxo(3-piperidyl))-N-({2-[6-({[(3-fluoro(2-pyridyl))cyclobutyl]methyl}ami-no)pyridazin-3-yl](1,3-thiazol-5-yl)}methyl)carboxamide] | A (A=<1 uM) | – | –
O=C1NC[C@@H](C(=O)NCc2cnc(-c3ccc(NCC4(c5ncccc5F)CCC4)nn3)s2)N1 [((4S)-2-oxoimidazolidin-4-yl)-N-({2-[6-({[(3-fluoro(2-pyridyl))cyclobutyl]methyl}ami-no)pyridazin-3-yl](1,3-thiazol-5-yl)}methyl)carboxamide] | A (A=<1 uM) | – | –
CC(OC(=O)NC(C)(C)C(=O)NCc1cnc(-c2ccc(NCC3(c4ncccc4F)CCC3)nn2)s1)OC(=O)C(C)C (centres unmarked) [(N-{1-[N-({2-[6-({[(3-fluoro(2-pyridyl))cyclobutyl]methyl}ami-no)pyridazin-3-yl](1,3-thiazol-5-yl)}methyl)carbamoyl]-isopropyl}carbamoyloxy)ethyl 2-methylpropanoate] | A (A=<1 uM) | – | –
CC(C)(C)OC(=O)NCCNc1n[nH]c2ccc(-c3ccc(NCC(C)(C)c4ccc(F)cc4)nn3)cc12 [(tert-butoxy)-N-(2-{[5-(6-{[2-(4-fluorophenyl)-2-methylpropyl]amino}pyridazin-3-yl)(1H-indazol-3-yl)]amino}ethyl)carboxamide] | – | A (A=<1 uM) | –
CC(C)(C)OC(=O)N(CC(C)(C)c1ncccc1F)c1ccc(-c2ccc3[nH]c(O)nc3c2)nn1 [(tert-butoxy)-N-[2-(3-fluoro(2-pyridyl))-2-methylpropyl]-N-[6-(2-hydroxybenzimidazol-5-yl)pyridazin-3-yl]carboxamide] | – | D (D=>20 uM) | –
CC(C)(C)OC(=O)N(CC(C)(C)c1ccc(F)cc1)c1ccc(-c2ccc3[nH]c(=O)c(=O)[nH]c3c2)nn1 [(tert-butoxy)-N-[6-(2,3-dioxo(1,4-dihydroquinoxalin-6-yl))pyridazin-3-yl]-N-[2-(4-fluorophenyl)-2-methylpropyl]carboxamide] | – | D (D=>20 uM) | –
CC(C)(C)OC(=O)NCc1cccc(-c2ccc(NCC(C)(C)c3ccc(F)cc3)nn2)c1 [(tert-butoxy)-N-{[3-(6-{[2-(4-fluorophenyl)-2-methylpropyl]amino}pyridazin-3-yl)phenyl]methyl}carboxamide] | – | B (B=1-10 uM) | –
O=C(NC1CS(=O)(=O)C1)c1cccc(-c2ccc(NC[C@]3(c4ncccc4F)C[C@H](F)C3)nn2)c1 [N-(1,1-dioxothietan-3-yl){3-[6-({[3-fluoro-1-(3-fluoro(2-pyridyl))cyclobutyl]methyl}ami-no)pyridazin-3-yl]phenyl}carboxamide] | – | – | Mean AC1.4 [2]: B (B=1-10 uM)
O=C(NC1CCS(=O)(=O)C1)c1cccc(-c2ccc(NC[C@]3(c4ncccc4F)C[C@H](F)C3)nn2)c1 (some centres unmarked) [N-(1,1-dioxothiolan-3-yl){3-[6-({[3-fluoro-1-(3-fluoro(2-pyridyl))cyclobutyl]methyl}ami-no)pyridazin-3-yl]phenyl}carboxamide] | – | – | Mean AC1.4 [2]: B (B=1-10 uM)
CC(=O)N1CC(NC(=O)c2cccc(-c3ccc(NC[C@]4(c5ncccc5F)C[C@H](F)C4)nn3)c2)C1 [N-(1-acetylazetidin-3-yl){3-[6-({[3-fluoro-1-(3-fluoro(2-pyridyl))cyclobutyl]methyl}ami-no)pyridazin-3-yl]phenyl}carboxamide] | – | – | Mean AC1.4 [2]: B (B=1-10 uM)
CC(=O)N1CC(NC(=O)c2ccc(F)c(-c3ccc(NC[C@]4(c5ncccc5F)C[C@H](F)C4)nn3)c2)C1 [N-(1-acetylazetidin-3-yl){4-fluoro-3-[6-({[3-fluoro-1-(3-fluoro(2-pyridyl))cyclobutyl]methyl}ami-no)pyridazin-3-yl]phenyl}carboxamide] | – | – | Mean AC1.4 [2]: A (A=<1 uM)
O=C(Nc1nnc[nH]1)c1ccc(NCC2(c3ncccc3F)CCC2)nn1 [N-(1H-1,2,4-triazol-5-yl)[6-({[(3-fluoro(2-pyridyl))cyclobutyl]methyl}ami-no)pyridazin-3-yl]carboxamide] | – | – | Mean AC1.4 [2]: D (D=>20 uM)
O=C(NCC(F)F)c1ccc(F)c(-c2ccc(NC[C@]3(c4ncccc4F)C[C@H](F)C3)nn2)c1 [N-(2,2-difluoroethyl){4-fluoro-3-[6-({[3-fluoro-1-(3-fluoro(2-pyridyl))cyclobutyl]methyl}ami-no)pyridazin-3-yl]phenyl}carboxamide] | – | – | Mean AC1.4 [2]: B (B=1-10 uM)
